Test results: patent US10898542B2, “Topical compositions comprising OB-fold variants” (AFFILOGIC, priority 2013, dated 2021)

Columns and labels:
[1] = Penetration through rabbit cornea in reaction chambers; type: in vitro ADME; details: male, Fauve de Bourgogne, 37° C., sampling 0 h, 2 h and 4 h, 0.5 cm^2, read-out: apparent permeability
Experimental: Three male rabbits (Fauve de Bourgogne) were used.
The principle is the same as for the skin permeability.
3 ml of formulation containing each nanofitin were placed on the donor side of the reaction chambers and 3 ml of PBS were placed on the receiver side. Freshly taken corneal tissues were placed between the two half-chambers.
The temperature was maintained at 37° C. throughout the study and the oxygenation was provided by continuous perfusion of carbogen (95% O2, 5% CO2). The exchange surface area was 0.5 cm^2.
At each following sampling period: 0 h, 2 h and 4 h, 500 μl of liquid were taken from the receiver side and replaced with PBS. • 100 μl of liquid were taken from the donor side and were not replaced.
At the end of the sampling period, the 0.5 cm^2 of corneas were removed from the reaction chamber and scraped with a scalpel. 1 ml of PBS was added to the samples, which were homogenized.

[2] = system: skin inflammation similar to psoriasis caused by imiquimod (Aldara); assay: Imiquimod-induced psoriasis-type ear inflammation, topical treatment, PASI score; type: in vivo, Balb/c mice; details: cream on right ear; mice licked their ears, systemic effect after ingestion very probable
Experimental: In order to verify the skin penetration of nanofitins and the preservation of their properties, in particular their property of neutralizing the receptor-ligand relationship, inflammation models of psoriasis type were used and the reduction in inflammation (PASI score) after topical administration of anti-inflammatory nanofitins directly to the skin was measured.
These nanofitins target two different cytokines involved in psoriasiform inflammation, but with different localizations, from the basal layers of the dermis just into the epidermis (Nestle et al., Nature Reviews Immunology 9, 679-691, 2009). The nanofitins in question neutralize the binding of the targeted cytokines with their receptor. In order to inhibit the action of these cytokines during inflammation of psoriasis type, it is necessary to reach the layers where they are located, either systemically as therapeutic antibodies do, or topically via the skin. The measurement of an anti-inflammatory effect by topical administration of nanofitins thus attests to penetration of the nanofitins through the skin and to an associated therapeutic efficacy.
The local application of imiquimod (Aldara) to the internal face of the ears of mice causes a skin inflammation similar to psoriasis (Van der Fits et al., J Immunol. 2009 May 1; 182(9):5836-45, Flutter et al., Eur J Immunol. 2013 December; 43(12):3138-46). […]

[3] = Franz cell diffusion test, penetration through human skin ex vivo; type: in vitro ADME; details: human skin 1 mm, 100 μl at 5 mg/ml, 24 h, PBS pH 7.4 receiver, 2 cm^2
Description: The test used is the Franz cell diffusion test.
Franz cells are used to determine, ex vivo, the skin penetration of exogenous substances, and to actually measure the speed of passage through the various layers of the skin barrier of the molecules constituting the active ingredient deposited at the surface of the skin.
A solution containing the molecule to be studied is deposited in a “donor” department of the device. The molecule then diffuses through a membrane (in the case in point the skin) and is collected in a “receiver” compartment.
In practice, after having removed the hypodermal layer (adipose tissue), the skin fragment is deposited on a diffusion cell, called a Franz cell. The deep face of the dermis is in contact with a receiver solution which is supposed to replace the interstitial fluid of the skin. A solution containing the molecule studied is deposited on top of the skin. […]
The nanofitin concentration was measured on each of the samples taken, using the BioLayer Interferometry technology which makes it possible to measure the interaction between two proteins. In the case in point, the nanofitin content is measured by the recognition of a poly-Histidine tag which is coupled to said nanofitins beforehand.

CCn1cc(C(=O)O)c(=O)c2cc(F)c(N3CCNCC3)cc21 [norfloxacin]
Papp at 4 h [1]: 11 ×10⁻⁶ cm/s

C[C@H]1C[C@H]2[C@@H]3CCC4=CC(=O)C=C[C@]4(C)[C@@]3(F)[C@@H](O)C[C@]2(C)[C@@]1(O)C(=O)CCl [clobetazole]
inflammation on the nontreated left ear [2]: reduction in the inflammation on the nontreated left ear

Cn1c(=O)c2c(ncn2C)n(C)c1=O [caffeine]
percentage found on the receiver side (skin permeability) [3]: ~10%
